In PMC6627698, “Redesigning Arenicin-1, an Antimicrobial Peptide from the Marine Polychaeta Arenicola marina, by Strand Rearrangement or Branching, Substitution of Specific Residues, and Backbone Linearization or Cyclization” (Marine Drugs, 2019):
pIC50: −log10 of the molar value. Residues, ends and D or L forms follow the SMILES beside them.

Assays:
E. coli ATCC 25922 = assay type: cell-based, Escherichia coli; conditions: ATCC 25922, 18 h
From the text: (§1) E. coli ML35p, Listeria monocytogenes EGD, methicillin-resistant Staphylococcus aureus (MRSA) ATCC 33591 were kindly provided by Prof. Robert Lehrer (University of California, Los Angeles, CA, USA); E. coli ATCC 25922, E. coli M15, Pseudomonas aeruginosa ATCC 27853, S. aureus ATCC 25923 were provided by Dr. Elena Ermolenko (Institute of Experimental Medicine, St-Petersburg, Russia); drug-resistant clinical isolates were provided by Prof. Gennadiy Afinogenov (Saint Petersburg State University, Russia); S. aureus 710A has been described previously. The following clinical isolates of bacteria were used: P.s aeruginosa resistant to aztreonam, ceftazidime, cefotaxime (obtained from the urine of a patient with cystitis), Acinetobacter baumannii resistant to meropenem (from an infected wound); Staphylococcus intermedius (from an infected wound caused by a dog bite) resistant to ciprofloxacin, cefuroxime, clindamycin, erythromycin, rifampin, gentamicin, benzylpenicillin, oxacillin.
(§2) This assay was applied to determine the MIC, according to the guidelines of the Clinical and Laboratory Standards Institute, using Mueller Hinton (MH) Broth. We prepared 2x stocks of peptides and serially diluted them in sterile PBS instead of Mueller Hinton Broth, so that the treatment of the bacteria with the peptides was carried out in a medium containing 50% of MH and 50% of PBS, as described. The overnight cultures of each strain were transferred to fresh MH media and further incubated to obtain a mid-logarithmic-growth-phase culture of bacteria. The absorbance of each bacterial suspension was measured at 620 nm, and bacteria were then diluted to approximately 2 × 10^5 CFU/mL. Then, 50 µL of the suspensions were mixed with 50 µL of the peptide dilutions in the wells of a microtiter plate (pre-treated for 1 h at 37 °C with 0.2% bovine serum albumin (BSA) in water, sterilized by filtration, to diminish the non-specific binding of the peptides to the plastic surfaces).

E. coli M15 = assay type: cell-based, Escherichia coli; conditions: M15, 18 h
From the text: as §1, §2

[1] = test system: human erythroleukemia K-562 cells; assay type: cell-based; conditions: 24 h
Protocol: The standard MTT ((3-(4,5-Dimethylthiazol-2-yl)-2,5-diphenyltetrazolium bromide) test was used for the examination of the cytotoxic activity of AMPs towards human erithroleukemia cells K-562. The cells were purchased from Biolot (Saint Petersburg, Russia) and were grown in RPMI 1640 medium (Biolot, Saint Petersburg, Russia) supplemented with glutamine and 10% FCS. Before the experiment, the culturing medium was replaced with serum-free RPMI 1640. Serial dilutions of the peptides in RPMI were plated in sterile 96-well microplates, and the target cells were dispensed to the microplates (10^5 cells/well in RPMI 1640). The plates were incubated for 24 h at 37 °C under 5% CO2. Cell-free media and cells incubated without peptides served as controls. Four hours before the incubation ended, MTT in PBS (5 mg/mL) was added to each well. After the incubation was stopped by adding isopropanol/ 0.04 M HCl, the optical density was measured at 540 nm, subtracting the background absorbance at 690 nm. Toxicity was determined by nonlinear regression analysis of the corresponding dose–response curves using the Sigma Plot 11 program to calculate the IC50 values (the concentration of the test substance that reduced the OD540 capacity by 50%).

P. aeruginosa c.i. = assay type: cell-based, Pseudomonas aeruginosa; conditions: 18 h
From the text: as §1, §2

[2] = test system: Staphylococcus intermidius; assay type: cell-based, Staphylococcus intermedius; conditions: 18 h
From the text: as §1, §2

[3] = test system: Pseudomonas aeruginosa ATCC 27853; assay type: cell-based; conditions: ATCC 27853, 18 h
From the text: as §1, §2

[4] = test system: Listeria monocytogenes EGD; assay type: cell-based; conditions: 18 h
From the text: as §1, §2

[5] = test system: Staphylococcus aureus 710A; assay type: cell-based; conditions: 18 h
From the text: as §1, §2

[6] = test system: Acinetobacter baumanii c.i.; assay type: cell-based, Acinetobacter baumannii; conditions: 18 h
From the text: as §1, §2

[7] = test system: E. coli ML35p outer membrane; experiment: Outer membrane permeabilization assay (nitrocefin hydrolysis); assay type: cell-based, Escherichia coli; conditions: peptide at 2 × MIC, 10 mM sodium phosphate buffer, 100 mM NaCl, pH 7.4, 37 °C, 486 nm
Protocol: Figure 5 Permeabilizing effect of arenicin-1 variants on E. coli ML35p outer and cytoplasmic membranes.
The E. coli ML35p outer membrane permeability was assessed by monitoring hydrolysis of the chromogenic β-lactamase substrate nitrocefin (3-(2,4-dinitrostyryl)-(6R,7R)-7-(2-thienyl acetamido)ceph-3-em-4-carboxylic acid) (Calbiochem-Novabiochem, San-Diego, CA, USA) by detection of the hydrolysis product at 486 nm. Inner membrane permeability was monitored by measuring the hydrolysis of o-nitrophenyl-β-D-galactoside (ONPG, Sigma, La Jolla, CA, USA) at 420 nm. The E. coli ML35p strain expresses a plasmid-encoded periplasmic β-lactamase; it constitutively expresses cytoplasmic β-galactosidase and lacks lactose permease. E. coli ML35p was maintained on trypticase soy agar plates containing […] of ampicillin per mL. The bacteria used for antimicrobial testing or membrane permeability assays were picked from a single colony, incubated in 50 mL of sterile Trypticase soy broth for 16 h at 37 °C, washed three times with 10 mM sodium phosphate buffer (pH 7.4), adjusted to an optical density at 620 nm of 1 (2.5 × 10^8 CFU/mL), and kept on ice until use. The assays were performed in 96-well microtiter plates that were monitored every minute with a SpectraMax 250 Microplate Spectrophotometer (Molecular Devices, Sunnyvale, CA, USA) using the SOFTmax PRO software supplied by the manufacturer. […]

S. aureus ATCC 25923 = assay type: cell-based, Staphylococcus aureus; conditions: ATCC 25923, 18 h
From the text: as §1, §2

S. aureus c.i. = assay type: cell-based, Staphylococcus aureus; conditions: 18 h
From the text: as §1, §2

MRSA ATCC 33591 = assay type: cell-based, Staphylococcus aureus; conditions: ATCC 33591, 18 h
From the text: as §1, §2

[8] = test system: set of Gram-negative and Gram-positive bacteria, including drug-resistant clinical isolates; assay type: cell-based; conditions: 12 strains; median MICs used; MIC > 16 µM taken as 32 µM
Protocol: To obtain a global assessment of the effect on antimicrobial activity, the geometric mean of the MIC (G-MIC) was calculated, and from this, the overall improvement or impoverishment with respect to arenicin-1. In general, inverting the symmetry or decreasing the charge had detrimental effects.
The overall activity against a set of tested bacterial strains was determined by way of the commonly used geometric mean of measured MIC values. […] At the same time, the geometric mean can still discriminate antimicrobial agents showing minor variations in activity; in other words, it has a better “resolution” than the median MIC (MIC50). Some mathematical basics for choosing the geometric mean for antimicrobial activity comparison are further discussed in the Supplementary Chapter S3.

Escherichia coli ML35p = assay type: cell-based; conditions: broth microdilution, 50% Mueller Hinton broth / 50% PBS, 18 h at 37 °C, median of 3–5 experiments in triplicates
From the text: as §1, §2

Compound	Minimal Inhibitory Concentrations (MIC) (E. coli ATCC 25922) [µM]	Minimal Inhibitory Concentrations (MIC) (E. coli M15) [µM]	pIC50 [1]	Minimal Inhibitory Concentrations (MIC) (P. aeruginosa c.i.) [µM]	Minimal Inhibitory Concentrations (MIC) [2] [µM]	Minimal Inhibitory Concentrations (MIC) [3] [µM]	Minimal Inhibitory Concentrations (MIC) [4] [µM]	Minimal Inhibitory Concentrations (MIC) [5] [µM]	Minimal Inhibitory Concentrations (MIC) [6] [µM]	Capacity to permeabilize the outer membrane with respect to arenicin-1 [7]	Minimal Inhibitory Concentrations (MIC) (S. aureus ATCC 25923) [µM]	Minimal Inhibitory Concentrations (MIC) (S. aureus c.i.) [µM]	Minimal Inhibitory Concentrations (MIC) (MRSA ATCC 33591) [µM]	G-MIC (geometric mean of all determined MICs) [8] [µM]	Minimal Inhibitory Concentrations (MIC) (Escherichia coli ML35p) [µM]
CC(C)C[C@@H]1NC(=O)[C@H](C(C)C)NC(=O)CNC(=O)[C@H](CCCNC(=N)N)NC(=O)[C@H](C(C)C)NC(=O)[C@H](CCCNC(=N)N)NC(=O)[C@H](C(C)C)NC(=O)[C@H](Cc2ccc(O)cc2)NC(=O)[C@H](C)NC(=O)[C@H](Cc2ccc(O)cc2)NC(=O)[C@H](C(C)C)NC(=O)[C@@H]2CSSC[C@H](NC(=O)[C@H](CCCNC(=N)N)NC(=O)[C@H](CCCNC(=N)N)NC(=O)[C@H](Cc3ccc(O)cc3)NC(=O)[C@H](CCCNC(=N)N)NC(=O)[C@H](C(C)C)NC1=O)C(=O)N[C@@H](Cc1c[nH]c3ccccc13)C(=O)N[C@@H](CCCNC(=N)N)C(=O)N[C@@H](Cc1c[nH]c3ccccc13)C(=O)N2 [ARcycl] (HELM PEPTIDE1{R.W.C.V.Y.A.Y.V.R.V.R.G.V.L.V.R.Y.R.R.C.W}$PEPTIDE1,PEPTIDE1,3:R3-20:R3|PEPTIDE1,PEPTIDE1,1:R1-21:R2$$$V2.0)	2	2	4.79	2	4	1	2	2	4	improved capacity to permeabilize the outer membrane	2	4	4	–	–
CC(C)[C@@H]1NC(=O)[C@H](CCCNC(=N)N)NC(=O)[C@H](C(C)C)NC(=O)[C@H](Cc2ccc(O)cc2)NC(=O)[C@H](C)NC(=O)[C@H](Cc2ccc(O)cc2)NC(=O)[C@H](C(C)C)NC(=O)[C@@H](NC(=O)[C@H](Cc2c[nH]c3ccccc23)NC(=O)[C@@H](N)CCCNC(=N)N)CSSC[C@H](NC(=O)[C@H](Cc2c[nH]c3ccccc23)NC(=O)[C@@H](N)CCCNC(=N)N)C(=O)N[C@@H](C(C)C)C(=O)N[C@@H](Cc2ccc(O)cc2)C(=O)N[C@@H](C)C(=O)N[C@@H](Cc2ccc(O)cc2)C(=O)N[C@@H](C(C)C)C(=O)N[C@@H](CCCNC(=N)N)C(=O)N[C@@H](C(C)C)C(=O)N[C@H](C(=O)N[C@@H](CN)C(N)=O)CCCNC1=O [ARs-N-B] (HELM PEPTIDE1{R.W.C.V.Y.A.Y.V.R.V.[Orn].[NC[C@H](N[*:1])C(=O)[*:2]].[am]}|PEPTIDE2{R.W.C.V.Y.A.Y.V.R.V}$PEPTIDE1,PEPTIDE2,3:R3-3:R3|PEPTIDE1,PEPTIDE2,11:R3-10:R2$$$V2.0)	8	4	4.45	16	8	2	2 to 4	8	4	–	8	8	8	5.9	4
CC(C)[C@@H]1NC(=O)CNC(=O)[C@H](CCCNC(=N)N)NC(=O)[C@H](C(C)C)NC(=O)[C@H](CCCNC(=N)N)NC(=O)[C@H](C(C)C)NC(=O)[C@H](Cc2ccc(O)cc2)NC(=O)[C@H](C)NC(=O)[C@H](Cc2ccc(O)cc2)NC(=O)[C@H](C(C)C)NC(=O)[C@@H](NC(=O)[C@H](Cc2c[nH]c3ccccc23)NC(=O)[C@H](CCCNC(=N)N)NC(=O)[C@@H](N)CCCNC(=N)N)CSSC[C@@H](C(=O)N[C@@H](Cc2c[nH]c3ccccc23)C(=O)O)NC(=O)[C@H](C(C)C)NC(=O)[C@H](Cc2ccc(O)cc2)NC(=O)[C@H](C)NC(=O)[C@H](Cc2ccc(O)cc2)NC(=O)[C@H](C(C)C)NC(=O)[C@H](CCCNC(=N)N)NC1=O [ARs-N] (HELM PEPTIDE1{R.R.W.C.V.Y.A.Y.V.R.V.R.G.V.R.V.Y.A.Y.V.C.W}$PEPTIDE1,PEPTIDE1,4:R3-21:R3$$$V2.0; N-terminus assumed)	>16	>16	4.74	>16	>16	>16	8	>16	>16	–	>16	>16	>16	≥26.9	16
